Patent US12391662B2, “Lipid compounds and lipid nanoparticle compositions” (RINUAGENE BIOTECHNOLOGY CO., LTD., priority 2022, dated 2025)

Key:
[1] = LNP particle size and PDI (Malvern ZetaSizer); type: physicochemical; conditions: LNP of Compound:cholesterol:DSPC:DMG-PEG2000=50:38.5:10:1.5 encapsulating mRNA
Description: The mRNA stock solution was dispersed in 20 mM acetic acid solution (pH 5.0) to give a final concentration of 200 μg/mL (aqueous phase). […] The mRNA was mixed with the lipid mixture by T-mixing and controlling the flow rate of aqueous phase and oil phase (3:1) with a total flow rate of 12-50 ml/min, to obtain LNP-encapsulated mRNA. The encapsulated LNP was diluted with buffer (pH 5.0-5.5) and then concentrated by ultrafiltration with replacement of diluent, and finally LNP was concentrated to 200 μg/mL˜600 μg/mL of mRNA, while the pH of LNP was adjusted to about 7-8. […]

[2] = LNP mRNA encapsulation efficiency (Quant-iT RiboGreen RNA Assay Kit); type: physicochemical; conditions: LNP of Compound:cholesterol:DSPC:DMG-PEG2000=50:38.5:10:1.5 encapsulating mRNA
Description: The mRNA stock solution was dispersed in 20 mM acetic acid solution (pH 5.0) to give a final concentration of 200 μg/mL (aqueous phase). […] The mRNA was mixed with the lipid mixture by T-mixing and controlling the flow rate of aqueous phase and oil phase (3:1) with a total flow rate of 12-50 ml/min, to obtain LNP-encapsulated mRNA. The encapsulated LNP was diluted with buffer (pH 5.0-5.5) and then concentrated by ultrafiltration with replacement of diluent, and finally LNP was concentrated to 200 μg/mL˜600 μg/mL of mRNA, while the pH of LNP was adjusted to about 7-8. Finally, Quant-iT™ RiboGreen™ RNA Assay Kit (Invirtogen by Thermo Fisher Scientific, cat #R11490), and 10% Triton X-100 solution or 10% OTG solution as an emulsion breaker were used to detect the total and free content of mRNA in the LNP, and the encapsulation efficiency of LNP was calculated.

[3] = tested on: balb/c mice; assay: Extrahepatic delivery of Luciferase mRNA LNPs after intravenous injection, organ fluorescence (liver, spleen, stomach, intestine tract); type: in vivo; conditions: 20 μg LNP intravenous, 24 hours, FIGS. 2A-2D, compared with MC3 and Compound 20A groups
Description: Five balb/c mice (Zhejiang Vital River Laboratory Animal Technology Co., Ltd, female, 6-8 weeks old, 18-20 g) were taken as a group, labeled with a black marker pen on the tail with numbers 1 # to 5 #; five mice in each group were sequentially injected intravenously with 20 μg of the lipid nanoparticle composition. The lipid nanoparticle compositions of the present invention were prepared according to Test Example 1, in which Luciferase mRNA was encapsulated. A phosphate buffered saline (PBS) group was set up in parallel as a blank control, and an MC3 group was set up as a reference (obtained by preparation according to the method and ratio of Test Example 1).
Fluorescence assay was performed for each group of mice at 24 hours after intravenous administration of the samples ([…] YEASEN,LOT:D5330150, IP, 150 mg/kg was administered 10 minutes in advance for each group), the mice were anesthetized, and then put into a small animal living optical imaging system-IVIS® Lumina LT Series III according to the orders from tail mark 1 # to 5 #. The whole-body fluorescence was detected to evaluate the delivery and the expression of the prepared Luciferase mRNA.
At the end of the test, the mice were sacrificed by cervical dislocation, and the liver, spleen, stomach, and intestine tract were harvested, and the organs were discharged according to the corresponding positions from 1 # to 5 # for fluorescence detection of the organs.

[4] = tested on: rats; assay: Toxicity assay: serum ALT/AST and deaths after single intravenous dose of Luciferase mRNA LNPs; type: in vivo; conditions: LNP intravenous single dose 3 mg/kg; for aspartate aminotransferase and alanine aminotransferase values compared with MC3 and SM102 groups: serum 24 hours after administration, FIGS. 3A-3B; for animals that died during the test: five animals per group
Description: Animals were grouped according to body weight (five animals per group) one day before administration (Zhejiang Vital River Laboratory Animal Technology Co. Ltd, male, body weight: 170-220 g). […] Luciferase mRNA was encapsulated in said lipid nanoparticle compositions.
The administration volume is 10 mL/kg, and the administration dosage is 3 mg/kg.

[5] = tested on: SD rats; assay: Toxicity assay: clinical markers 24 hours after intravenous LNP administration; type: in vivo; conditions: LNP intravenous 3 mg/kg, 24 hours after administration
Description: The nanoparticle samples containing different lipids were administered to rats (SD rats, Zhejiang Vital River Laboratory Animal Technology Co., Ltd, 3 males and 3 females per group, body weight: 220-300 g for female, 260-340 g for male) by intravenous injection at a dose of 3 mg/kg. The expression of various clinical markers was assessed at 24 hours after administration and compared with the expression induced by SM102 LNP formulation (i.e., LNP formulation made from the known SM102 lipid, which was prepared according to the method of Test Example 1 in the same ratio) as well as by phosphate buffered saline (PBS).

| Compound | PDI [1] | Particle Size [1] | Encapsulation Efficiency [2] | extrahepatic delivery effect [3] | aspartate aminotransferase and alanine aminotransferase values compared with MC3 and SM102 groups [4] | Alanine transaminase [5] | Aspartate transaminase [5] | animals that died during the test [4] |
| --- | --- | --- | --- | --- | --- | --- | --- | --- |
| CCCCCCCCCCCOC(=O)CCCCCC1(CCCCCCCC(=O)OC(CCCCCCCC)CCCCCCCC)OCC(CN(C)C)CO1 (centres unmarked) [Compound 1] | 0.1125 | 66.97 nm | 97.22% | – | – | – | – | – |
| CCCCCCCCCCCOC(=O)CCCCCC1(CCCCCCCC(=O)OC(CCCCCCCC)CCCCCCCC)OC[C@H](CCN(C)C)O1 (some centres unmarked) [Compound 2A] | 0.02967 | 86.26 nm | 96.44% | significant extrahepatic delivery effects | lower than those of the groups of the ionizable lipids MC3 and SM102 | – | – | – |
| CCCCCCCCCCCOC(=O)CCCCCC1(CCCCCCCC(=O)OC(CCCCCCCC)CCCCCCCC)OCC(CCN(C)C)O1 (centres unmarked) [Compound 2] | 0.03414 | 70.27 nm | 92.32% | – | – | 116.27 U/L | 342.17 U/L | – |
| CCCCCCCCCCCOC(=O)CCCCCC1(CCCCCCCC(=O)OC(CCCCCCCC)CCCCCCCC)OCC(CN(C)C)O1 (centres unmarked) [Compound 3] | 0.1264 | 95.04 nm | 95.04% | – | – | – | – | – |
| CCCCCCCCCCC(=O)OCCCCCCC1(CCCCCCCC(=O)OC(CCCCCCCC)CCCCCCCC)OCC(CN(C)C)CO1 (centres unmarked) [Compound 4] | 0.1387 | 69.03 nm | 96.23% | – | – | – | – | – |
| CCCCCCCCCCC(=O)OCCCCCCC1(CCCCCCCC(=O)OC(CCCCCCCC)CCCCCCCC)OC[C@H](CCN(C)C)O1 (some centres unmarked) [Compound 5A] | 0.1311 | 73.41 nm | 96.0% | significant extrahepatic delivery effects | lower than those of the groups of the ionizable lipids MC3 and SM102 | – | – | – |
| CCCCCCCCCCC(=O)OCCCCCCC1(CCCCCCCC(=O)OC(CCCCCCCC)CCCCCCCC)OC[C@@H](CCN(C)C)O1 (some centres unmarked) [Compound 5B] | 0.04848 | 67.95 nm | 98.4% | – | – | – | – | – |
| CCCCCCCCCCC(=O)OCCCCCCC1(CCCCCCCC(=O)OC(CCCCCCCC)CCCCCCCC)OCC(CCN(C)C)O1 (centres unmarked) [Compound 5] | 0.04107 | 89.54 nm | 94.92% | – | – | 65.72 U/L | 251.10 U/L | – |
| CCCCCCCCCCC(=O)OCCCCCCC1(CCCCCCCC(=O)OC(CCCCCCCC)CCCCCCCC)OCC(CN(C)C)O1 (centres unmarked) [Compound 6] | 0.1676 | 69.85 nm | 95.50% | – | – | – | – | – |
| CCCCCCCCCCC(=O)OCCCCCCC1(CCCCCCCCOC(=O)C(CCCCCCCC)CCCCCCCC)OCC(CN(C)C)O1 (centres unmarked) [Compound 7] | 0.1537 | 92.38 nm | 96.52% | – | – | – | – | – |
| CCCCCCCCCCC(=O)OCCCCCCC1(CCCCCCCCOC(=O)C(CCCCCCCC)CCCCCCCC)OCC(CCN(C)C)O1 (centres unmarked) [Compound 8] | 0.09334 | 99.68 nm | 90.99% | – | – | – | – | – |
| CCCCCCCCCCC(=O)OCCCCCCC1(CCCCCCCCOC(=O)C(CCCCCCCC)CCCCCCCC)OCC(CN(C)C)CO1 (centres unmarked) [Compound 9] | 0.1368 | 71.61 nm | 95.07% | – | – | – | – | – |
| CCCCCCCCCCCOC(=O)CCCCCC1(CCCCCCCC(=O)OC(CCCCCCCC)CCCCCCCC)OCC(CCN(C)CC)O1 (centres unmarked) [Compound 10] | 0.07 | 78.44 nm | 96.5% | – | – | – | – | – |
| CCCCCCCCCCCOC(=O)CCCCCC1(CCCCCCCC(=O)OC(CCCCCCCC)CCCCCCCC)OCC(CCN(CC)CC)O1 (centres unmarked) [Compound 11] | 0.06 | 80.34 nm | 97.5% | – | – | – | – | – |
| CCCCCC(CCCCC)CCOC(=O)CCCCCCCC1(CCCCCCCC(=O)OCCC(CCCCC)CCCCC)OC[C@H](CCN(C)C)O1 [Compound 20A] | 0.073 | 85.64 nm | 92.5% | – | – | – | – | all five rats in Compound 20A group died |
| CCCCC/C=C\C/C=C\CCCCCCCCC(CCCCCCCC/C=C\C/C=C\CCCCC)OC(=O)CCCN(C)C [MC3, reference compound] | 0.15 | 72.70 nm | 96.7% | – | – | – | – | four rats in the MC3 group died |

More lines, main results first:

| PDI [1] | Particle Size [1] | Encapsulation Efficiency [2] | Compound | extrahepatic delivery effect [3] | aspartate aminotransferase and alanine aminotransferase values compared with MC3 and SM102 groups [4] | Alanine transaminase [5] | Aspartate transaminase [5] | animals that died during the test [4] |
| --- | --- | --- | --- | --- | --- | --- | --- | --- |
| 0.16 | 98.15 nm | 89.3% | CCCCCCCCCCCOC(=O)CCCCCC1(CCCCCCCC(=O)OC(CCCCCCCC)CCCCCCCC)OCC(CCCN(C)C)O1 (centres unmarked) [Compound 13] | significant extrahepatic delivery effects | lower than those of the groups of the ionizable lipids MC3 and SM102 | – | – | – |
| 0.16 | 118.1 nm | 90.97% | CCCCCCCCCCCOC(=O)CCCCCC1(CCCCCCCC(=O)OC(CCCCCCCC)CCCCCCCC)OCC(CCCCN(C)C)O1 (centres unmarked) [Compound 14] | – | – | – | – | – |
| 0.10 | 61.73 nm | 97.2% | CCCCCCCCCCCOC(=O)CCCCCC1(CCCCCCCC(=O)OC(CCCCCCCC)CCCCCCCC)OCC(CCN(C)CCC)O1 (centres unmarked) [Compound 15] | – | – | – | – | – |
| 0.03 | 71.68 nm | 97.6% | CCCCCCCCCCCOC(=O)CCCCCC1(CCCCCCCC(=O)OC(CCCCCCCC)CCCCCCCC)OCC(CCN(CC)C(C)C)O1 (centres unmarked) [Compound 16] | – | – | – | – | – |
| 0.05 | 125.0 nm | 98.2% | CCCCCCCCCCCNC(=O)CCCCCC1(CCCCCCCC(=O)NC(CCCCCCCC)CCCCCCCC)OCC(CCN(C)C)O1 (centres unmarked) [Compound 17] | – | – | – | – | – |
| 0.10 | 69.23 nm | 96.5% | CCCCCCCCC(CCCCCCCC)CC(=O)CCCCCCCC1(CCCCCCCC(=O)OC(CCCCCCCC)CCCCCCCC)OCC(CCN(C)C)O1 (centres unmarked) [Compound 18] | – | – | – | – | – |
| 0.34 | 110.3 nm | 93.3% | CCCCCCCCCCCOC(=O)CCCCCC1(CCCCCC(=O)OCCCCCCCCCCC)OCC(CCN(C)C)O1 (centres unmarked) [Compound 19] | – | – | – | – | – |
| 0.3138 | 92.89 nm | 96.8% | CCCCCCCCC(CCCCCC)C(=O)OCCCCCCC1(CCCCCCOC(=O)C(CCCCCC)CCCCCCCC)OCC(CCN(C)C)O1 (centres unmarked) [Compound 21] | – | – | – | – | – |
| 0.07 | 74.80 nm | 97.5% | CCCCCCCCCCCOC(=O)CCCCCN(CCO)CCCCCCCC(=O)OC(CCCCCCCC)CCCCCCCC [SM-102, reference compound] | – | – | 286.51 U/L | 486.42 U/L | – |
